According to patent US8865775B2, “Anti-inflammatory agent and cancer-preventive agent comprising canolol or prodrug thereof and pharmaceutical, cosmetic and food comprising the same” (priority 2004, dated 2014):

Assays:
[1] = tested on: gastric carcinoma in Mongolian gerbils; experiment: Suppression of gastric carcinogenesis in gerbils infected with H. pylori and treated with MNU; assay type: in vivo
Text: They were divided into two groups: one was fed with AIN-93G diet for mice containing 0.1% of canolol (“canolol-fed group”); the other was fed with the same diet compositions without canolol. […] Ten gerbils per group were examined.
Thin slices obtained from the paraffin blocks were examined with HE (hematoxyline eosin) staining under microscope.

[2] = Half-life in the culture medium; assay type: physicochemical
Text: (§1) At the inflammatory site, peroxynitrite (ONOO^−) is excessively generated as a result of inflammatory reaction, and toxic effect thereof to living cells is one of the cause of pathogenesis. It was anticipated that canolol would exert protective effects against said toxicity of ONOO^− to cultured cells.

[3] = tested on: Mongolian gerbils infected with Helicobacter pylori ATCC 43504; experiment: Suppression of gastritis in Mongolian gerbils infected with H. pylori and given MNU (pathology of excised stomach); assay type: in vivo; details: diet containing 0.1% canolol for 12 weeks; vs diet without canolol
Text: (§2) The six-week old Mongolian gerbils were given drinking water with 10 ppm of MNU (a carcinogen N-methylnitrosourea) for one week followed by oral infection with Helicobacter pylori ATCC 43504 strain, or were orally infected with 1×10^8 CFU of H. pylori and 10 ppm of MNU were then given for one week. They were divided into two groups: one was fed with AIN-93G diet for mice containing 0.1% of canolol (“canolol-fed group”); the other was fed with the same diet compositions without canolol. The experiment was continued for up to 52 weeks (X. Cao et al, Jpn. J. Cancer Res., 93, 1293-1298 (2002), N. Shimizu, et al, Cancer Res., 60, 1512-1514 (2000)). Ten gerbils per group were examined.

[4] = tested on: 8-oxodeoxyguanosine (8-OHdG); experiment: 8-OHdG production in gastric specimens, fluorescent antibody staining; assay type: in vivo, Mongolian gerbils; details: after 12 weeks
Text: as §2
(§3) 8-OHdG is one of the markers of inflammatory disorders that are generated as a result from a reaction of reactive oxygen species with DNA, said reactive oxygen species being derived from inflammatory cells in vivo. The amount of 8-OHdG produced was studied under similar conditions as Example (1) using a conventional fluorescent antibody staining method with the anti-8-OHdG antibody against excised gastric specimens of each group after 12 weeks.

Helicobacter pylori = experiment: H. pylori count in mid-stomach tissues of infected gerbils; assay type: in vivo; details: after 12 weeks
Text: as §2, §3

[5] = tested on: stomach tissues of gerbils infected with H. pylori; experiment: Infiltration of neutrophils and hyperplasia in stomach tissues, hematoxylin-eosin staining; assay type: in vivo, Mongolian gerbils; details: 12 weeks
Text: as §2
Specimens of Example (1) were prepared 12 weeks after administration. Stomach specimens were prepared and examined under microscope after conventional hematoxylin-eosin staining.

cycloxygenase-2 (COX-2) = experiment: Induction of COX-2 in gastric lesions infected with H. pylori, immunostaining; assay type: in vivo, Mongolian gerbils; details: immunostaining quantification, 12 weeks, n = 10
Text: as §2
(§4) The expression levels of both enzymes were quantified by means of enzyme antibody using the specimens of Example (1) prepared 12 weeks after administration according to Example (2) . Both COX-2 and iNOS induced during inflammation are typical enzymes to onset an inflammation reaction. Namely, COX-2 produces prostanoid inflammatory mediators such as prostaglandin E2, and iNOS produces nitric oxide (NO), where these mediators and NO evokes inflammation. Both superoxide (O2^−) and NO produced at the site of inflammation immediately react with each other and form more reactive peroxynitrite (ONOO^−) (described later).

[6] = tested on: inducible form of NO synthase (iNOS); experiment: Induction of iNOS in gastric lesions infected with H. pylori, immunostaining; assay type: in vivo, Mongolian gerbils; details: immunostaining quantification, 12 weeks, n = 10
Text: as §2, §4

[7] = tested on: NO production from macrophages; experiment: Suppression of NO production from LPS + IFN-γ treated peritoneal macrophages (Gries method); assay type: cell-based, BALB/c mice; details: LPS 1 μg/ml + IFN-γ 0.1 μg/ml, 24 hours
Experimental: Next, the inflammatorily exuded peritoneal macrophages were treated with bacterial (E. coli) lipopolysaccharide (LPS) (1 μg/ml) and interferon-γ (0.1 μg/ml) in vitro, then the amount of NO, the inflammatory mediator released from the macrophages, was quantified as NO3^−+NO2^− by a conventional method (Gries method) [Stuehr D J, et al, J. Exp. Med., 169, 1543-55 (1989)] (FIG. 4). That is, to the 6-week old female BALB/c mice (SPF), 10% proteose peptone (1 ml) was injected intraperitoneally. The exuded peritoneal macrophages were collected by peritoneal puncture using a needled syringe, centrifuged in the presence of 10% heat-inactivated fetal calf serum and washed. The peritoneal macrophages (1×10^5/well), LPS (1 μg/ml), interferon-γ (IFN-γ) (0.1 μg/ml) and variable doses of canolol (5, 12.5, 25, 50, 100 μM) were plated in the plastic microplate (96-well) (Sumitomo Bakelite, Cat. #MS-8096F), and allowed to incubate for 24 hours at 37° C., under 5% CO2 and 95% air. Then, nitrite and nitrate ions in the supernatant were quantified by the Gries method. The culture medium used for the macrophages was RPMI-1640 containing 10% of heat-inactivated fetal calf serum. As control groups, LPS alone, and LPS+IFN-γ without canolol were used. The vertical axis of FIG. 4 indicates the total amount of nitrate and nitrite ions.

peritoneal macrophages = experiment: Effect on survival of macrophages; assay type: cell-based, BALB/c mice
[8] = tested on: human embryonic kidney epithelial cells HEK 293; experiment: Neutralization of peroxynitrite (SIN-1) toxicity to cultured cells, MTT method; assay type: cell-based; details: SIN-1 100 μM, HEK 293, MTT
Text: as §1

[9] = tested on: Salmonella typhimurium TA102; experiment: Suppression of ONOO- induced mutant colony formation (modified Ames medium); assay type: cell-based; details: 8 μM canolol; ONOO- at or above 4 μM
Experimental: 1×10^8 CFU of Salmonella typhimurium TA102 was taken into a beaker under sterile condition, then ONOO^− was continuously infused under stirring to make a predetermined concentration of ONOO^− between 1-800 μM. (FIG. 7A). An aliquot of S. typhimurium at each time point was removed to a petri dish containing modified Ames medium which permits selective growth of only mutant strains, and was cultured. […] The mutant colonies were formed progressively at or above 4 μM of ONOO^−, while they were not formed with addition of 8 μM canolol.

[10] = Hp + MNU, number of gerbils, after 57 weeks
[11] = mid-stomach tissue, 0.1% canolol diet

## Cc1cc(C(C)(C)C)c(O)c(C(C)(C)C)c1 [BHT, 2,6-di-tert-butyl-4-methylphenol]
[1]; Hp + MNU, after 57 weeks
  Incidence of carcinoma, Frequency (%): (39.4) %
  Incidence of carcinoma, Frequency (gerbils with carcinoma/group): 13/33
[1]; [10]
  Incidence of carcinoma, Differentiation: 11
  Incidence of carcinoma, Undifferentiation: 2
[1]; Hp + MNU, vs group I (Hp + MNU), after 57 weeks
  Rate of suppression (%): 6.5%

## Cl.N=c1c[n+](N2CCOCC2)[n-]o1 [SIN-1, 3-(4-morpholinyl) sydnonimine HCl]
[2]
  half-life: 360 min

## C=Cc1cc(OC)c(O)c(OC)c1 [canolol, 4-vinyl-2,6-dimethoxyphenol]
[3]
  inflammation of gastric epithelium: markedly suppressed
[4]
  8-OHdG production in vivo: exerted suppressive activity
[4]; [11]
  Amount of 8-OHdG (ratio): 19.6 ± 5.5 ratio
Helicobacter pylori; in vivo, gerbil stomach
  antibacterial activity: did not show any antibacterial activity
Helicobacter pylori; [11]
  H. pylori count (CFU): 4.42 ± 0.2 CFU
[5]
  gastritis in both gastric antrum and corpus: significantly suppressed
[5]; n = 10
  Hyperplasia, Gastric antrum: 1.2 ± 0.6
  Hyperplasia, Gastric corpus: 0.7 ± 0.2
  Neutrophil infiltration, Gastric antrum: 1.2 ± 0.4
  Neutrophil infiltration, Gastric corpus: 0.9 ± 0.2
cycloxygenase-2 (COX-2)
  COX-2, Gastric antrum: 0.9 ± 0.2
  COX-2, Gastric corpus: 0.6 ± 0.2
[6]
  iNOS, Gastric antrum: 0.9 ± 0.1
  iNOS, Gastric corpus: 0.5 ± 0.1
[7]
  effective concentration: 10 to 100 µM
Peritoneal macrophages; at 100 μM
  toxicity to macrophages (survival): essentially non-toxic
Peritoneal macrophages; macrophages
  cytotoxic concentration: ≥ 800 µM
[8]
  concentration that significantly neutralized the toxicity of ONOO-: 12.5 to 50 µM
[1]; 0.1% canolol vs without canolol
  suppression of the cancer incidence: 64%
[1]; gerbils fed with 0.1% canolol, around 57 weeks
  cancer incidence: 15%
[9]
  mutant colony formation by ONOO-: not formed
